# Source: patent publication US6380155B1, “Use of vasopressin receptor antagonist for regulation of ACTH release” (SmithKline Beecham plc., priority 1996, dated 2002)
# System: ob/ob mice
# Experiment: Plasma corticosterone in ob/ob mice after 7-day osmotic minipump treatment
# Type: in vivo, mouse
# Settings: C57BL/6J ob/ob mice, 86.4 μg/day by osmotic minipump for 7 days
# Procedure: A study was performed in 4-6 weeks old C57BL/6J mice homozygous (ob/ob) for the obese gene mutation to assess the effect of [deamino-Pen^1, o-Me-Tyr^2, Arg^8]-AVP (Sigma) a non-selective peptide V1b receptor antagonist on corticosterone concentration. Osmotic minipumps (Alzet Model 1007D, 0.5 μl/h for 7 days) were filled either with the peptide (to deliver 86.4 μg/day for 7 days) or vehicle and primed at least for 4 h at 37° C. before their implantation. A group of mice heterozygous (+/?) for the obese gene mutation was also implanted with osmotic minipumps filled with vehicle alone. After 7 days of treatment blood was collected into EDTA tubes and separated plasma assayed for corticosterone concentration measurement, by using a commercial rat ^125I-corticosterone (Amersham, U.K.).
substance,measurement,setting,value
"[deamino-Pen^1, o-Me-Tyr^2, Arg^8]-AVP [AVP antagonist]",Plasma corticosterone concentration,"n=7 per group, vehicle 228.9±63 ng/ml",109.9 ± 19.4 ng/mL
same,Plasma corticosterone concentration (effect in words),versus vehicle and lean group,reduced
